Measurements published in ChEMBL document CHEMBL3414527, “Engineering potent and selective analogues of GpTx-1, a tarantula venom peptide antagonist of the Na(V)1.7 sodium channel” (J Med Chem, 2015).
pIC50: −log10 of the molar value. Bridge positions count the residues as written; N and C are the ends. Peptide text beside a SMILES is read from it.

Tests used:
[1] = molecular target: Sodium channel protein type 9 subunit alpha (Homo sapiens, UniProt Q15858); experiment: Inhibition of human NaV1.7 at -140 mV holding potential by whole-cell patch clamp assay
Chain of Sodium channel protein type 9 subunit alpha (Q15858 whole entry): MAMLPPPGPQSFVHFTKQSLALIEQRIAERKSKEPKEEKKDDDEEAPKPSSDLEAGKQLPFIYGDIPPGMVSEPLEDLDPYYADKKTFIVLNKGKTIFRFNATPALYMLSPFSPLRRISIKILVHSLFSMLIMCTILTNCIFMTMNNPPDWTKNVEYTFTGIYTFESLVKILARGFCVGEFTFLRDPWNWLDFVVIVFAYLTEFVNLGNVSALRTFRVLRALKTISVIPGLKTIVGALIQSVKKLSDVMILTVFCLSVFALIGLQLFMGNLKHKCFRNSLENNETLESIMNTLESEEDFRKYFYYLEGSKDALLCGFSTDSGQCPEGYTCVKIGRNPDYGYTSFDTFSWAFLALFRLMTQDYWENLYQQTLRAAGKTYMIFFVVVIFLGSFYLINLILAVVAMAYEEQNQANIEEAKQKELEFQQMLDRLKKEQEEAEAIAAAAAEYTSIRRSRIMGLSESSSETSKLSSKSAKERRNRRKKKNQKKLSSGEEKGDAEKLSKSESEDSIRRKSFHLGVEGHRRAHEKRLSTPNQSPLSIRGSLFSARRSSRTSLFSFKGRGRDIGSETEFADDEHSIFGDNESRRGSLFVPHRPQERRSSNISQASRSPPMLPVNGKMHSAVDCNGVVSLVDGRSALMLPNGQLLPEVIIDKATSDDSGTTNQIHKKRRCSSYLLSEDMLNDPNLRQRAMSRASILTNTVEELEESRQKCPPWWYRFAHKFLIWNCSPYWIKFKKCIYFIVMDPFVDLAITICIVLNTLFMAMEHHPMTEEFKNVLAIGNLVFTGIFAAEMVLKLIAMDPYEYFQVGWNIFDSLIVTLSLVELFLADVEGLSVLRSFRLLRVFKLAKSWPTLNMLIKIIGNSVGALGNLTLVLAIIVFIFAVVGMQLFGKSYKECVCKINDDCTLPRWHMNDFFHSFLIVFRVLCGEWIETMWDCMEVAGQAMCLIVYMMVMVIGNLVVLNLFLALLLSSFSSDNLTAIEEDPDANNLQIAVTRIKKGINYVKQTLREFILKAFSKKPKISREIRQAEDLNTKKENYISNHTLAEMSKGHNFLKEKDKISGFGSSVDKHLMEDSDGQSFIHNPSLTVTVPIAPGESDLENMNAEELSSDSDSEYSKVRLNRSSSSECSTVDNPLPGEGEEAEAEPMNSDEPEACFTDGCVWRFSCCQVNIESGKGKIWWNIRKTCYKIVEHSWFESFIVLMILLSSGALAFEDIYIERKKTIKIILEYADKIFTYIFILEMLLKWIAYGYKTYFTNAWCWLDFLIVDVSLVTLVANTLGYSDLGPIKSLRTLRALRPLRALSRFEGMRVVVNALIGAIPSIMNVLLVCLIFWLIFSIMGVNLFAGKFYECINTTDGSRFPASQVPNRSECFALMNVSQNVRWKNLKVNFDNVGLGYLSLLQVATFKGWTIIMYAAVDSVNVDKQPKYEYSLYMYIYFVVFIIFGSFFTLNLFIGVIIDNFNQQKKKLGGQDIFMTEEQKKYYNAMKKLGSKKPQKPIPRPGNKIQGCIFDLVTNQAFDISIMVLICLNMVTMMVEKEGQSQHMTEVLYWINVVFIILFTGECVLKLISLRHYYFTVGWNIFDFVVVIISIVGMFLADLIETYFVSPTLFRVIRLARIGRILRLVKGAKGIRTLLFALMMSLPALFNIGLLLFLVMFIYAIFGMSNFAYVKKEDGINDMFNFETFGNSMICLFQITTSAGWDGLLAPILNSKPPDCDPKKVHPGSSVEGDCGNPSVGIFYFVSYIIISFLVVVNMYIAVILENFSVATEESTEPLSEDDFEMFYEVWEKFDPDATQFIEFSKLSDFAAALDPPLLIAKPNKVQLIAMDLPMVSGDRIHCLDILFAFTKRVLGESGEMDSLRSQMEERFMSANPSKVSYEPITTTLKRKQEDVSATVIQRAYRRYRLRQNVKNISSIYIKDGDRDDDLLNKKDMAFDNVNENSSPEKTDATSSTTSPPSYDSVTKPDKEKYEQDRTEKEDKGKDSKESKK

[2] = molecular target: Sodium channel protein type 5 subunit alpha (Homo sapiens, UniProt Q14524); experiment: Inhibition of human NaV1.5 at -140 mV holding potential by whole-cell patch clamp assay
Chain of Sodium channel protein type 5 subunit alpha (Q14524 whole entry): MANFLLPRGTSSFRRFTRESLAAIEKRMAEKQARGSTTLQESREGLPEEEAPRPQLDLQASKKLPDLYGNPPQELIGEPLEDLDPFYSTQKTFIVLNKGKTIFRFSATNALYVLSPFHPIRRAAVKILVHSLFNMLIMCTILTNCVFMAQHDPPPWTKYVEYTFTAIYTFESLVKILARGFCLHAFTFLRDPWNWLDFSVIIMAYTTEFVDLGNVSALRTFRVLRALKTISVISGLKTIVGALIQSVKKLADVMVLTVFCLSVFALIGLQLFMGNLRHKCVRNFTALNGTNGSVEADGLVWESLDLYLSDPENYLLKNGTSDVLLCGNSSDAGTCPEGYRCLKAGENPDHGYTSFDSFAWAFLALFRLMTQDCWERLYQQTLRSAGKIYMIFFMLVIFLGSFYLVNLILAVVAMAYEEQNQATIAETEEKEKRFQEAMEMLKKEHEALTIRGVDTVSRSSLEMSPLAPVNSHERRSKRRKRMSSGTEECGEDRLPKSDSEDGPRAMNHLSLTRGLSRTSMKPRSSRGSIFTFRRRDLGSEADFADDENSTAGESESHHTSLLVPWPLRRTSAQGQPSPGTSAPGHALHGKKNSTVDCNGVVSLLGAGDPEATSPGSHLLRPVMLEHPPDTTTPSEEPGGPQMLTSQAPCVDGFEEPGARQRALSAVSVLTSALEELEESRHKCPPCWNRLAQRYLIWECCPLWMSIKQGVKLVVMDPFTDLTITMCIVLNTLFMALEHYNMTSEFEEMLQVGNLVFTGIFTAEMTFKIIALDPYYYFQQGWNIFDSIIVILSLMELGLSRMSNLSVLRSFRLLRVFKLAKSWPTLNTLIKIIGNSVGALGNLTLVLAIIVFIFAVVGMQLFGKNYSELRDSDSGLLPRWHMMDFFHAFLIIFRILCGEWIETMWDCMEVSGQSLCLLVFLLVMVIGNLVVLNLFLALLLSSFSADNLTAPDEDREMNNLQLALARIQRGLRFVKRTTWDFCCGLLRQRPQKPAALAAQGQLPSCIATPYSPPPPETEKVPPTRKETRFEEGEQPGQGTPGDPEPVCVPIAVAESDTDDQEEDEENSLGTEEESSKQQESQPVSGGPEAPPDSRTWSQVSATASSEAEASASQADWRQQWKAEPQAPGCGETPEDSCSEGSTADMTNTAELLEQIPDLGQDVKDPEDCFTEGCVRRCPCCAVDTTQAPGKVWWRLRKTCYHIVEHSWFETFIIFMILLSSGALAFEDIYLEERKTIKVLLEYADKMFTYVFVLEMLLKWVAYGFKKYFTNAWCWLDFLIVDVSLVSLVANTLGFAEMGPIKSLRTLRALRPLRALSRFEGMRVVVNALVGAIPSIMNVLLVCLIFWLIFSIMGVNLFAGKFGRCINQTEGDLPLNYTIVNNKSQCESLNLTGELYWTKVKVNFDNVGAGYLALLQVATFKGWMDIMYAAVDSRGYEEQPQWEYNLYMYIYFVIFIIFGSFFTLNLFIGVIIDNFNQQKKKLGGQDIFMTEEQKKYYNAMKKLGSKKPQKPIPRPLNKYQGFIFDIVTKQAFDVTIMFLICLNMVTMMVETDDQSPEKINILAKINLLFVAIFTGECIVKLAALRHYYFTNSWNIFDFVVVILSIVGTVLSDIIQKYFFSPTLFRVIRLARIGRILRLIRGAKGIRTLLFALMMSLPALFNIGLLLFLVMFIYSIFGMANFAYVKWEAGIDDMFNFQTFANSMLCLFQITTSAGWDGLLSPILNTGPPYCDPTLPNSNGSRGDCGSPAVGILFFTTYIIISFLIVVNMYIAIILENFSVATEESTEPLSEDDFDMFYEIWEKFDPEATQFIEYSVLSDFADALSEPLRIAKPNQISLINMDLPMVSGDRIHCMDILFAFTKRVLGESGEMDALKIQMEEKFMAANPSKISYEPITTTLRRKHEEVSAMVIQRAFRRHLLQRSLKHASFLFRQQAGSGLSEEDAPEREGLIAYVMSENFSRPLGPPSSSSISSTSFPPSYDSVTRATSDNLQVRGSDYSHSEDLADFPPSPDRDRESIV

Q: CC[C@H](C)[C@@H]1NC(=O)[C@@H]2CSSC[C@@H]3NC(=O)[C@H](C(C)C)NC(=O)[C@H](CC(C)C)NC(=O)[C@H](CC(N)=O)NC(=O)[C@@H]4CCCN4C(=O)[C@H](CCCNC(=N)N)NC(=O)[C@H](CSSC[C@H](NC(=O)[C@@H](N)CC(=O)O)C(=O)N[C@@H](CC(C)C)C(=O)NCC(=O)N[C@@H](Cc4ccccc4)C(=O)N[C@@H](CCSC)C(=O)N[C@@H](CCCNC(=N)N)C(=O)N[C@@H](CCCCN)C(=O)N2)NC(=O)[C@H](CSSC[C@@H](C(=O)N[C@@H](CCCCN)C(=O)N[C@@H](Cc2ccc(O)cc2)C(=O)N[C@@H](C)C(=O)N[C@@H](Cc2ccccc2)C(N)=O)NC(=O)[C@H](Cc2c[nH]c4ccccc24)NC(=O)[C@H](CCCCN)NC(=O)[C@H](Cc2cnc[nH]2)NC(=O)[C@H]([C@@H](C)O)NC(=O)[C@H](CCCNC(=N)N)NC(=O)[C@H](CO)NC3=O)NC(=O)[C@H](CCCCN)NC(=O)[C@H](CC(=O)O)NC(=O)[C@H](CC(N)=O)NC(=O)[C@H](CC(=O)O)NC(=O)[C@@H]2CCCN2C1=O (H-DCLGFMRKCIPDNDKCCRPNLVCSRTHKWCKYAF-NH2; disulfide 2-17, 9-23, 16-30) was tested. Which pIC50 [1] did it give?
A: Its pIC50 is 6.77.

Q: What about the pIC50 [2] of the same molecule?
A: The pIC50 was less than 5.30.

Q: With CC[C@H](C)[C@@H]1NC(=O)[C@@H]2CSSC[C@@H]3NC(=O)[C@H](C(C)C)NC(=O)[C@H](CC(C)C)NC(=O)[C@H](CC(N)=O)NC(=O)[C@@H]4CCCN4C(=O)[C@H](CCCNC(=N)N)NC(=O)[C@H](CSSC[C@H](NC(=O)[C@@H](N)CC(=O)O)C(=O)N[C@@H](CC(C)C)C(=O)NCC(=O)N[C@@H](Cc4ccccc4)C(=O)N[C@@H](CCSC)C(=O)N[C@@H](CCCNC(=N)N)C(=O)N[C@@H](CCCCN)C(=O)N2)NC(=O)[C@H](CSSC[C@@H](C(=O)N[C@@H](CCCCN)C(=O)N[C@@H](Cc2ccc(O)cc2)C(=O)N[C@H](C(=O)N[C@@H](Cc2ccccc2)C(N)=O)C(C)C)NC(=O)[C@H](Cc2c[nH]c4ccccc24)NC(=O)[C@H](C)NC(=O)[C@H](Cc2cnc[nH]2)NC(=O)[C@H]([C@@H](C)O)NC(=O)[C@H](CCCNC(=N)N)NC(=O)[C@H](CO)NC3=O)NC(=O)[C@H](CCCCN)NC(=O)[C@H](CC(=O)O)NC(=O)[C@H](CC(N)=O)NC(=O)[C@H](CC(=O)O)NC(=O)[C@@H]2CCCN2C1=O (H-DCLGFMRKCIPDNDKCCRPNLVCSRTHAWCKYVF-NH2; disulfide 2-17, 9-23, 16-30) as the molecule, how does the pIC50 [1] read?
A: The pIC50 was 6.33.

Q: And the pIC50 [2]?
A: The pIC50 was less than 5.30.

Q: CC[C@H](C)[C@@H]1NC(=O)[C@@H]2CSSC[C@@H]3NC(=O)[C@H](C(C)C)NC(=O)[C@H](CC(C)C)NC(=O)[C@H](CC(N)=O)NC(=O)[C@@H]4CCCN4C(=O)[C@H](CCCNC(=N)N)NC(=O)[C@H](CSSC[C@H](NC(=O)[C@@H](N)CC(=O)O)C(=O)N[C@@H](CC(C)C)C(=O)NCC(=O)N[C@@H](Cc4ccccc4)C(=O)N[C@@H](CCSC)C(=O)N[C@@H](CCCNC(=N)N)C(=O)N[C@@H](C)C(=O)N2)NC(=O)[C@H](CSSC[C@@H](C(=O)N[C@@H](CCCCN)C(=O)N[C@@H](Cc2ccc(O)cc2)C(=O)N[C@H](C(=O)N[C@@H](Cc2ccccc2)C(N)=O)C(C)C)NC(=O)[C@H](Cc2c[nH]c4ccccc24)NC(=O)[C@H](CCCCN)NC(=O)[C@H](Cc2cnc[nH]2)NC(=O)[C@H]([C@@H](C)O)NC(=O)[C@H](CCCNC(=N)N)NC(=O)[C@H](CO)NC3=O)NC(=O)[C@H](CCCCN)NC(=O)[C@H](CC(=O)O)NC(=O)[C@H](CC(N)=O)NC(=O)[C@H](CC(=O)O)NC(=O)[C@@H]2CCCN2C1=O (H-DCLGFMRACIPDNDKCCRPNLVCSRTHKWCKYVF-NH2; disulfide 2-17, 9-23, 16-30) was tested. Which pIC50 [1] did it give?
A: The pIC50 was 6.30.

Q: And the pIC50 [2]?
A: Its pIC50 is less than 5.30.

Q: What does the source list for CC[C@H](C)[C@@H]1NC(=O)[C@@H]2CSSC[C@@H]3NC(=O)[C@H](C(C)C)NC(=O)[C@H](CC(C)C)NC(=O)[C@H](CC(N)=O)NC(=O)[C@@H]4CCCN4C(=O)[C@H](CCCNC(=N)N)NC(=O)[C@H](CSSC[C@H](NC(=O)[C@@H](N)CC(=O)O)C(=O)N[C@@H](CC(C)C)C(=O)NCC(=O)N[C@@H](Cc4ccccc4)C(=O)N[C@@H](CC4CCCCC4)C(=O)N[C@@H](CCCNC(=N)N)C(=O)N[C@@H](CCCCN)C(=O)N2)NC(=O)[C@H](CSSC[C@@H](C(=O)N[C@@H](CCCCN)C(=O)N[C@@H](Cc2ccc(O)cc2)C(=O)N[C@H](C(=O)N[C@@H](Cc2ccccc2)C(N)=O)C(C)C)NC(=O)[C@H](Cc2c[nH]c4ccccc24)NC(=O)[C@H](CCCCN)NC(=O)[C@H](Cc2cnc[nH]2)NC(=O)[C@H]([C@@H](C)O)NC(=O)[C@H](CCCNC(=N)N)NC(=O)[C@H](CO)NC3=O)NC(=O)[C@H](CCCCN)NC(=O)[C@H](CC(=O)O)NC(=O)[C@H](CC(N)=O)NC(=O)[C@H](CC(=O)O)NC(=O)[C@@H]2CCCN2C1=O?
A: pIC50 [1]: 8.40; pIC50 [2]: 5.55

Q: How did the pIC50 [1] turn out when CC[C@H](C)[C@@H]1NC(=O)[C@@H]2CSSC[C@@H]3NC(=O)[C@H](C(C)C)NC(=O)[C@H](CC(C)C)NC(=O)[C@H](CC(N)=O)NC(=O)[C@@H]4CCCN4C(=O)[C@H](CCCNC(=N)N)NC(=O)[C@H](CSSC[C@H](NC(=O)[C@@H](N)CC(=O)O)C(=O)N[C@@H](CC(C)C)C(=O)NCC(=O)N[C@@H](Cc4ccccc4)C(=O)N[C@@H](CCSC)C(=O)N[C@@H](CCCNC(=N)N)C(=O)N[C@@H](CCCCN)C(=O)N2)NC(=O)[C@H](CSSC[C@@H](C(=O)N[C@@H](CCCCN)C(=O)N[C@@H](Cc2ccc(O)cc2)C(=O)N[C@H](C(=O)N[C@@H](Cc2ccccc2)C(N)=O)C(C)C)NC(=O)[C@H](Cc2c[nH]c4ccccc24)NC(=O)[C@H](CCCCN)NC(=O)[C@H](Cc2cnc[nH]2)NC(=O)[C@H](CCC(=O)O)NC(=O)[C@H](CCCNC(=N)N)NC(=O)[C@H](CO)NC3=O)NC(=O)[C@H](CCCCN)NC(=O)[C@H](CC(=O)O)NC(=O)[C@H](CC(N)=O)NC(=O)[C@H](CC(=O)O)NC(=O)[C@@H]2CCCN2C1=O (H-DCLGFMRKCIPDNDKCCRPNLVCSREHKWCKYVF-NH2; disulfide 2-17, 9-23, 16-30) was run?
A: The pIC50 was 7.47.

Q: What about the pIC50 [2] of the same molecule?
A: Its pIC50 is less than 5.00.

Q: With CC[C@H](C)[C@@H]1NC(=O)[C@@H]2CSSC[C@@H]3NC(=O)[C@H](C(C)C)NC(=O)[C@H](CC(C)C)NC(=O)[C@H](CC(N)=O)NC(=O)[C@@H]4CCCN4C(=O)[C@H](CCCNC(=N)N)NC(=O)[C@H](CSSC[C@H](NC(=O)[C@@H](N)CC(=O)O)C(=O)N[C@@H](CC(C)C)C(=O)NCC(=O)N[C@@H](C(C)(C)C)C(=O)N[C@@H](CCSC)C(=O)N[C@@H](CCCNC(=N)N)C(=O)N[C@@H](CCCCN)C(=O)N2)NC(=O)[C@H](CSSC[C@@H](C(=O)N[C@@H](CCCCN)C(=O)N[C@@H](Cc2ccc(O)cc2)C(=O)N[C@H](C(=O)N[C@@H](Cc2ccccc2)C(N)=O)C(C)C)NC(=O)[C@H](Cc2c[nH]c4ccccc24)NC(=O)[C@H](CCCCN)NC(=O)[C@H](Cc2cnc[nH]2)NC(=O)[C@H]([C@@H](C)O)NC(=O)[C@H](CCCNC(=N)N)NC(=O)[C@H](CO)NC3=O)NC(=O)[C@H](CCCCN)NC(=O)[C@H](CC(=O)O)NC(=O)[C@H](CC(N)=O)NC(=O)[C@H](CC(=O)O)NC(=O)[C@@H]2CCCN2C1=O as the molecule, how does the pIC50 [1] read?
A: Its pIC50 is 7.62.

Q: What about the pIC50 [2] of the same molecule?
A: The pIC50 was less than 5.00.

Q: Which results are given for CC[C@H](C)[C@@H]1NC(=O)[C@@H]2CSSC[C@@H]3NC(=O)[C@H](C(C)C)NC(=O)[C@H](CC(C)C)NC(=O)[C@H](CC(N)=O)NC(=O)[C@@H]4CCCN4C(=O)[C@H](CCCNC(=N)N)NC(=O)[C@H](CSSC[C@H](NC(=O)[C@@H](N)CC(=O)O)C(=O)N[C@@H](CC(C)C)C(=O)NCC(=O)N[C@@H](Cc4ccccc4)C(=O)N[C@@H](CCSC)C(=O)N[C@@H](CCCNC(=N)N)C(=O)N[C@@H](CCCCN)C(=O)N2)NC(=O)[C@H](CSSC[C@@H](C(=O)N[C@@H](CCCCN)C(=O)N[C@@H](Cc2ccc(O)cc2)C(=O)N[C@H](C(=O)N[C@@H](Cc2ccccc2)C(N)=O)C(C)C)NC(=O)[C@H](Cc2c[nH]c4ccccc24)NC(=O)[C@H](CCCCN)NC(=O)[C@H](Cc2cnc[nH]2)NC(=O)[C@H]([C@@H](C)O)NC(=O)[C@H](C)NC(=O)[C@H](CO)NC3=O)NC(=O)[C@H](CCCCN)NC(=O)[C@H](CC(=O)O)NC(=O)[C@H](CC(N)=O)NC(=O)[C@H](CC(=O)O)NC(=O)[C@@H]2CCCN2C1=O (H-DCLGFMRKCIPDNDKCCRPNLVCSATHKWCKYVF-NH2; disulfide 2-17, 9-23, 16-30)?
A: pIC50 [1]: 6.48; pIC50 [2]: < 5.30

Q: Which results are given for CC[C@H](C)[C@@H]1NC(=O)[C@@H]2CSSC[C@@H]3NC(=O)[C@H](C(C)C)NC(=O)[C@H](CC(C)C)NC(=O)[C@H](CC(N)=O)NC(=O)[C@@H]4CCCN4C(=O)[C@H](CCCNC(=N)N)NC(=O)[C@H](CSSC[C@H](NC(=O)[C@@H](N)CC(=O)O)C(=O)N[C@@H](CC(C)C)C(=O)NCC(=O)N[C@@H](CC4CCCCC4)C(=O)N[C@@H](CCSC)C(=O)N[C@@H](CCCNC(=N)N)C(=O)N[C@@H](CCCCN)C(=O)N2)NC(=O)[C@H](CSSC[C@@H](C(=O)N[C@@H](CCCCN)C(=O)N[C@@H](Cc2ccc(O)cc2)C(=O)N[C@H](C(=O)N[C@@H](Cc2ccccc2)C(N)=O)C(C)C)NC(=O)[C@H](Cc2c[nH]c4ccccc24)NC(=O)[C@H](CCCCN)NC(=O)[C@H](Cc2cnc[nH]2)NC(=O)[C@H]([C@@H](C)O)NC(=O)[C@H](CCCNC(=N)N)NC(=O)[C@H](CO)NC3=O)NC(=O)[C@H](CCCCN)NC(=O)[C@H](CC(=O)O)NC(=O)[C@H](CC(N)=O)NC(=O)[C@H](CC(=O)O)NC(=O)[C@@H]2CCCN2C1=O?
A: pIC50 [1]: 8.40; pIC50 [2]: 5.46
